Assay results taken from ChEMBL document CHEMBL1201862, “PubChem BioAssay data set” (2004).
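Briefly, cells in 96-well plates were exposed to five compound concentrations for 48 h, and endpoints were estimated by linear interpolation. GI50 = concentration required for 50% inhibition of growth.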 Activity calls are given as the source filed them. Cut-off read from the data, not from the text of the source: active = GI50 up to about 1.1 µM and inactive = higher.

Columns and labels:
Assay in all cases: NCI tumour cell line growth inhibition, 48 h
[1] = tested on: HL-60
[2] = tested on: SW-620
[3] = tested on: TK-10
[4] = tested on: K562
[5] = tested on: SF-268
[6] = tested on: EKVX
[7] = tested on: SF-295
[8] = tested on: NCI-H522
[9] = tested on: HOP-92
[10] = tested on: T47D
[11] = tested on: RPMI-8226
[12] = tested on: MCF7
[13] = tested on: DU-145
[14] = tested on: ACHN
[15] = tested on: IGROV-1
[16] = tested on: HT-29
[17] = tested on: SK-OV-3
[18] = tested on: SNB-75
[19] = tested on: M14

SMILES | GI50 [1] | GI50 [2] | GI50 [3] | GI50 [4] | GI50 [5] | GI50 [6] | GI50 [7] | GI50 [8] | GI50 [9] | GI50 [10] | GI50 [11] | GI50 [12] | GI50 [13] | GI50 [14] | GI50 [15] | GI50 [16] | GI50 [17] | GI50 [18] | GI50 [19]
CN(C)CCCNC(=O)c1c(O)c2ccccc2[nH]c1=O | > 100 µM (inactive) | > 100 µM (inactive) | > 100 µM (inactive) | > 100 µM (inactive) | 83.2 µM (inactive) | > 100 µM (inactive) | 22.9 µM (inactive) | > 100 µM (inactive) | 38.4 µM (inactive) | > 100 µM (inactive) | > 100 µM (inactive) | > 100 µM (inactive) | > 100 µM (inactive) | > 100 µM (inactive) | 42 µM (inactive) | > 100 µM (inactive) | > 100 µM (inactive) | > 100 µM (inactive) | 
CCOC(=O)c1cc2ncccc2c2ccccc12 | > 100 µM (inactive) |  | > 100 µM (inactive) | > 100 µM (inactive) | > 100 µM (inactive) | > 100 µM (inactive) | > 100 µM (inactive) | > 100 µM (inactive) | > 100 µM (inactive) | > 100 µM (inactive) | > 100 µM (inactive) | > 100 µM (inactive) | > 100 µM (inactive) | > 100 µM (inactive) | > 100 µM (inactive) | > 100 µM (inactive) | > 100 µM (inactive) | > 100 µM (inactive) | > 100 µM (inactive)
C=C1C(=O)O[C@@H]2C[C@@]3(C)CC(=O)C=C(C)[C@@H]3C[C@H]12 | 1.71 µM (inactive) | 3.33 µM (inactive) | 10.2 µM (inactive) |  | 11.8 µM (inactive) | 12.2 µM (inactive) | 33.1 µM (inactive) | 4.46 µM (inactive) | 16.3 µM (inactive) | 11.2 µM (inactive) | 2.12 µM (inactive) | 3.22 µM (inactive) | 4.29 µM (inactive) | 2.69 µM (inactive) | 13.3 µM (inactive) | 6.14 µM (inactive) | 37.9 µM (inactive) | 16.1 µM (inactive) | 13.5 µM (inactive)
N#C/C(=C\n1ccc(=O)[nH]c1=S)C(N)=O | > 100 µM (inactive) | > 100 µM (inactive) |  | > 100 µM (inactive) | > 100 µM (inactive) | > 100 µM (inactive) | > 100 µM (inactive) | > 100 µM (inactive) | 73.6 µM (inactive) | > 100 µM (inactive) | > 100 µM (inactive) | > 100 µM (inactive) | > 100 µM (inactive) | > 100 µM (inactive) | > 100 µM (inactive) | > 100 µM (inactive) | > 100 µM (inactive) | > 100 µM (inactive) | > 100 µM (inactive)
CC(=O)O[C@H]1CC[C@H]2[C@@H]3CCC4=C(C(=O)C=CC4(C)OC(C)=O)[C@H]3CC[C@]12C (some centres undefined) | 27.3 µM (inactive) | 35.8 µM (inactive) | > 100 µM (inactive) | 33.1 µM (inactive) | 83.4 µM (inactive) | > 100 µM (inactive) | 98.4 µM (inactive) | 45.8 µM (inactive) | 63.2 µM (inactive) | > 100 µM (inactive) | 38.3 µM (inactive) | 26.4 µM (inactive) | > 100 µM (inactive) | 54 µM (inactive) | > 100 µM (inactive) | 46.6 µM (inactive) |  | 45 µM (inactive) | 46.8 µM (inactive)
CC(C)C(O)(C(C)C)C(C)C | > 100 µM (inactive) |  | > 100 µM (inactive) | > 100 µM (inactive) | > 100 µM (inactive) | > 100 µM (inactive) | > 100 µM (inactive) | > 100 µM (inactive) | > 100 µM (inactive) | > 100 µM (inactive) | > 100 µM (inactive) | > 100 µM (inactive) | > 100 µM (inactive) | > 100 µM (inactive) | > 100 µM (inactive) | > 100 µM (inactive) | > 100 µM (inactive) | > 100 µM (inactive) | > 100 µM (inactive)
NC(=O)C(=CNC(=S)Nc1ccccc1)C(N)=O | > 100 µM (inactive) | > 100 µM (inactive) |  | > 100 µM (inactive) | > 100 µM (inactive) | > 100 µM (inactive) | > 100 µM (inactive) | > 100 µM (inactive) | 29.9 µM (inactive) | 97.7 µM (inactive) | > 100 µM (inactive) | > 100 µM (inactive) | > 100 µM (inactive) | > 100 µM (inactive) | > 100 µM (inactive) | > 100 µM (inactive) | > 100 µM (inactive) | 64.9 µM (inactive) | > 100 µM (inactive)
O=[N+]([O-])c1cccc2nc3ccccc3c(NCCN(CCO)CCO)c12 | 0.0104 µM (active) | 0.000774 µM (active) | 0.00836 µM (active) |  | 0.00423 µM (active) | 0.00731 µM (active) | 0.00698 µM (active) | 0.00116 µM (active) | 0.00447 µM (active) | 0.00367 µM (active) | 0.00246 µM (active) | 0.00206 µM (active) | 0.00208 µM (active) | 0.00361 µM (active) | 0.00578 µM (active) | 0.00256 µM (active) | 0.00989 µM (active) | 0.00726 µM (active) | 0.00338 µM (active)
